The assay relates to P388 leukemia ip, CD2F1 mice, survival T/C. Nature of the assay: NCI In Vivo Anticancer Drug Screen. Data for tumor model P388 Leukemia (intraperitoneal) in CD2F1 (CDF1) mice. To be noted: endpoint: median survival time, higher = longer survival. In short, it runs like this:
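Mice carrying the transplanted tumor received test compound or vehicle. Survival was recorded in each group, and the value is the treated-group measurement divided by that of the vehicle-treated control group.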

The mark [1] stands for this setting: dose: 50.0 mg/kg/injection, schedule: Q01DX009 (ip), vehicle: saline with Tween-80.
[2] abbreviates: dose: 100.0 mg/kg/injection, schedule: Q01DX009 (ip), vehicle: saline with Tween-80.
Where [3] appears, read: dose: 200.0 mg/kg/injection, schedule: Q01DX009 (ip), vehicle: saline with Tween-80.
Setting [4] is: dose: 50.0 mg/kg/injection, schedule: Q01DX009 (ip), vehicle: saline.
[5] abbreviates: dose: 60.0 mg/kg/injection, schedule: Q01DX005 (ip), vehicle: saline with Tween-80.
The mark [6] stands for this setting: dose: 120.0 mg/kg/injection, schedule: Q01DX005 (ip), vehicle: saline with Tween-80.
The mark [7] stands for this setting: dose: 240.0 mg/kg/injection, schedule: Q01DX005 (ip), vehicle: saline with Tween-80.
Where [8] appears, read: dose: 50.0 mg/kg/injection, schedule: Q01DX005 (ip), vehicle: saline.
Setting [9] is: dose: 100.0 mg/kg/injection, schedule: Q01DX005 (ip), vehicle: saline.
The mark [10] stands for this setting: dose: 60.0 mg/kg/injection, schedule: Q01DX005 (ip), vehicle: saline.
Setting [11] is: dose: 120.0 mg/kg/injection, schedule: Q01DX005 (ip), vehicle: saline.

The values below come from PubChem BioAssay AID330 (DTP/NCI, 2004).

Where “and” joins values, the source holds several entries; their conditions need not be identical. Identical values can stand only once. Inconclusive results and toxic doses are left out.

Take `CCOC(=O)C(Cc1ccc(O)cc1)NS(=O)(=O)c1ccc(C)cc1` (centres undefined): the T/C was 98 % of control under setting [1], 100 % of control under setting [2] and 108 % of control under setting [3].

Regarding `CSc1nnc2nc[nH]n12`, the T/C is 102 % of control (dose: 100.0 mg/kg/injection, schedule: Q01DX001 (ip), vehicle: saline with Tween-80) and 98 % of control (dose: 200.0 mg/kg/injection, schedule: Q01DX001 (ip), vehicle: saline with Tween-80).

On to `COc1ccc(S(=O)(=O)F)cc1NC(C)=O`, for which the T/C by setting is: (dose: 60.0 mg/kg/injection, schedule: Q01DX005 (ip), vehicle: Klucel (hydroxypropylcellulose) (HPC)) 105 % of control; (dose: 120.0 mg/kg/injection, schedule: Q01DX005 (ip), vehicle: Klucel (hydroxypropylcellulose) (HPC)) 101 % of control.

As for `CC(C)N1C(=O)c2ccccc2S1(Cl)c1ccccc1` (centres undefined), the T/C (dose: 100.0 mg/kg/injection, schedule: Q04DX003 (ip), vehicle: Klucel (hydroxypropylcellulose) (HPC)) was 101 % of control; the T/C (dose: 200.0 mg/kg/injection, schedule: Q04DX003 (ip), vehicle: Klucel (hydroxypropylcellulose) (HPC)) is 98 % of control; the T/C (dose: 400.0 mg/kg/injection, schedule: Q04DX003 (ip), vehicle: Klucel (hydroxypropylcellulose) (HPC)) was 98 % of control.

In the case of `COC(=O)CCSC(=O)Nc1ccc(Cl)cc1`, the T/C was 105 % of control (dose: 50.0 mg/kg/injection, schedule: Q01DX005 (ip), vehicle: Klucel (hydroxypropylcellulose) (HPC)); 101 % of control (dose: 100.0 mg/kg/injection, schedule: Q01DX005 (ip), vehicle: Klucel (hydroxypropylcellulose) (HPC)); 113 % of control (dose: 200.0 mg/kg/injection, schedule: Q01DX005 (ip), vehicle: Klucel (hydroxypropylcellulose) (HPC)).

Regarding `CCC[CH2][Sn]([CH2]CCC)([CH2]CCC)[CH2]CCCNCCCN(C)C`, the T/C runs as follows: under setting [4], 97 % of control; (dose: 100.0 mg/kg/injection, schedule: Q01DX009 (ip), vehicle: saline) 100 % of control.

As to `CC(=O)Cc1nc2ccccc2s1`, the T/C reads like this: (dose: 25.0 mg/kg/injection, schedule: Q04DX002 (ip), vehicle: saline with Tween-80) 104 % of control; (dose: 50.0 mg/kg/injection, schedule: Q04DX002 (ip), vehicle: saline with Tween-80) 107 % of control; (dose: 100.0 mg/kg/injection, schedule: Q04DX002 (ip), vehicle: saline with Tween-80) 102 % of control.

For the molecule `COCCOP(=O)(N1CC1)N1CC1`, the T/C is, setting by setting: (dose: 6.25 mg/kg/injection, schedule: Q04DX003 (ip), vehicle: saline) 118 % of control; (dose: 25.0 mg/kg/injection, schedule: Q01DX009 (ip), vehicle: saline) 181 % of control; (dose: 25.0 mg/kg/injection, schedule: Q04DX003 (ip), vehicle: saline) 177 % of control; (dose: 33.0 mg/kg/injection, schedule: Q04DX003 (ip), vehicle: saline) 150 % of control; under setting [4], 122 % of control; (dose: 50.0 mg/kg/injection, schedule: Q04DX003 (ip), vehicle: saline) 175 % of control and 190 % of control. The T/C (dose: 75.0 mg/kg/injection, schedule: Q04DX003 (ip), vehicle: saline) was 120 % of control.

`N#CC(Cc1ccc(CC(C#N)(c2ccccc2)c2ccccn2)cc1)(c1ccccc1)c1ccccn1` (centres undefined): the T/C under setting [5] was 100 % of control, the T/C under setting [6] was 91 % of control and the T/C under setting [7] was 86 % of control.

`Cc1csc2ccccc12`: the T/C runs as follows: under setting [1], 102 % of control; under setting [5], 101 % of control; under setting [2], 119 % of control; under setting [6], 100 % of control; under setting [3], 92 % of control; under setting [7], 100 % of control.

For the molecule `COc1cc(NCCN(CC(C)C)C2CCCC2)c2ncccc2c1`, the T/C was 100 % of control and 106 % of control (dose: 12.5 mg/kg/injection, schedule: Q01DX005 (ip), vehicle: saline); 100 % of control and 114 % of control (dose: 25.0 mg/kg/injection, schedule: Q01DX005 (ip), vehicle: saline); 101 % of control and 103 % of control and 106 % of control under setting [8]; 121 % of control and 90 % of control and 96 % of control under setting [9].

With `Nc1nnc(CCC(=O)Nc2cccc(C(F)(F)F)c2)n1N`, the T/C reads like this: (dose: 50.0 mg/kg/injection, schedule: Q01DX005 (ip), vehicle: saline with Tween-80) 107 % of control; (dose: 100.0 mg/kg/injection, schedule: Q01DX005 (ip), vehicle: saline with Tween-80) 105 % of control; (dose: 200.0 mg/kg/injection, schedule: Q01DX005 (ip), vehicle: saline with Tween-80) 90 % of control.

As for `FC(F)(F)SN1CN(SC(F)(F)F)CN(SC(F)(F)F)CN(SC(F)(F)F)CN(SC(F)(F)F)C1`, the T/C under setting [10] was 92 % of control and the T/C under setting [11] was 92 % of control.

For `CC1(C)CNC(=S)O1`, the T/C reads like this: (dose: 6.25 mg/kg/injection, schedule: Q01DX009 (ip), vehicle: Klucel (hydroxypropylcellulose) (HPC)) 107 % of control; (dose: 12.5 mg/kg/injection, schedule: Q01DX009 (ip), vehicle: Klucel (hydroxypropylcellulose) (HPC)) 100 % of control; (dose: 25.0 mg/kg/injection, schedule: Q01DX009 (ip), vehicle: Klucel (hydroxypropylcellulose) (HPC)) 88 % of control and 89 % of control.

On to `COC1C(OC2CCC3(C=O)C4CCC5(C)C(C6=CC(=O)OC6)CCC5(O)C4CCC3(O)C2)OC(C)C(O)C1OC` (centres undefined), for which the T/C is, setting by setting: (dose: 0.35 mg/kg/injection, schedule: Q01DX009 (ip), vehicle: saline) 99 % of control; (dose: 0.7 mg/kg/injection, schedule: Q01DX009 (ip), vehicle: saline) 100 % of control; (dose: 1.4 mg/kg/injection, schedule: Q01DX009 (ip), vehicle: saline) 100 % of control; (dose: 2.8 mg/kg/injection, schedule: Q01DX009 (ip), vehicle: saline) 100 % of control.

As to `CSc1nc(Cl)c(Cl)cc1Cl`, the T/C under setting [1] is 100 % of control, the T/C under setting [2] was 97 % of control and the T/C under setting [3] is 91 % of control.

With `CNC(=O)OCc1c(COC(=O)NC)c(-c2ccc(C(C)(C)C)cc2)n(C)c1C`, the T/C was 150 % of control and 152 % of control (dose: 6.25 mg/kg/injection, schedule: Q01DX009 (ip), vehicle: distilled water + Tween-80); 155 % of control (dose: 12.5 mg/kg/injection, schedule: Q01DX009 (ip), vehicle: distilled water + Tween-80); 150 % of control and 158 % of control (dose: 25.0 mg/kg/injection, schedule: Q01DX009 (ip), vehicle: distilled water + Tween-80); 97 % of control (dose: 50.0 mg/kg/injection, schedule: Q01DX009 (ip), vehicle: distilled water + Tween-80).

`CCCCC(CC)CCC(CC(C)C)OCCC#N` (centres undefined): the T/C reads like this: (dose: 100.0 mg/kg/injection, schedule: Q01DX009 (ip), vehicle: Klucel (hydroxypropylcellulose) (HPC)) 100 % of control; (dose: 200.0 mg/kg/injection, schedule: Q01DX009 (ip), vehicle: Klucel (hydroxypropylcellulose) (HPC)) 96 % of control; (dose: 400.0 mg/kg/injection, schedule: Q01DX009 (ip), vehicle: Klucel (hydroxypropylcellulose) (HPC)) 90 % of control.

Regarding `O=C1OC(CO)C(O)C(O)C1O` (centres undefined), the T/C reads like this: under setting [8], 100 % of control; under setting [9], 93 % of control; (dose: 200.0 mg/kg/injection, schedule: Q01DX005 (ip), vehicle: saline) 96 % of control.

Regarding `CC(=O)N1CN(C(C)=O)CN(C(C)=O)C1`, the T/C is, setting by setting: under setting [10], 94 % of control; under setting [11], 94 % of control; (dose: 240.0 mg/kg/injection, schedule: Q01DX005 (ip), vehicle: saline) 100 % of control.

Consider `ClCCCN1CCN(CCCCl)CC1`, for which the T/C by setting is: (dose: 12.5 mg/kg/injection, schedule: Q01DX009 (ip), vehicle: distilled water + alcohol) 113 % of control; (dose: 25.0 mg/kg/injection, schedule: Q01DX009 (ip), vehicle: distilled water + alcohol) 121 % of control; (dose: 100.0 mg/kg/injection, schedule: Q01DX009 (ip), vehicle: distilled water + alcohol) 157 % of control and 190 % of control.

As to `COC1c2cc3ccccc3nc2-c2ccccc2C1(C)C` (centres undefined), the T/C was 99 % of control (dose: 25.0 mg/kg/injection, schedule: Q01DX009 (ip), vehicle: other); 96 % of control (dose: 50.0 mg/kg/injection, schedule: Q01DX009 (ip), vehicle: other); 93 % of control (dose: 100.0 mg/kg/injection, schedule: Q01DX009 (ip), vehicle: other); 89 % of control (dose: 200.0 mg/kg/injection, schedule: Q01DX009 (ip), vehicle: other); 89 % of control (dose: 400.0 mg/kg/injection, schedule: Q01DX009 (ip), vehicle: other).
